According to publication PMC5974403, “The novel histone de acetylase 6 inhibitor, MPT0G211, ameliorates tau phosphorylation and cognitive deficits in an Alzheimer’s disease model” (Cell Death & Disease, 2018):

Experiments:
SH-SY5Y cells [1] = experiment: Western blot of acetyl-α-tubulin and acetyl-histone, SH-SY5Y cells; type: cell-based, human; conditions: 0.1 to 1 μM, 24 h
Experimental: (§1) Cell viabilities were determined by MTT assay. The results represent the mean ± SEM of three independent experiments; *p < 0.05, **p < 0.01 and ***p < 0.001 compared with controls TEXT PRINTED IN THE PICTURE: (A) no label printed: M.W. 293.32
(§2) Cells (1 × 10^6) were incubated for 10 min at 4 °C in lysis buffer (20 mM HEPES, pH 7.4, 2 mM EGTA, 50 mM β-glycerophosphate, 0.1% Triton X-100, 10% glycerol, 1 mM dithiothreitol, 1 μg/mL leupeptin, 5 μg/mL aprotinin, 1 mM phenylmethylsulfonyl fluoride, and 1 mM sodium orthovanadate), scraped from the plate, incubated on ice for 10 min, and centrifuged at 17,000 × g for 30 min at 4 °C. Protein samples (30 μg) were electrophoresed through sodium dodecyl sulfate-polyacrylamide gels (SDS-PAGE) and transferred onto a nitrocellulose membrane, which was then blocked by incubation for 30 min at room temperature with 5% fat-free milk in PBS. Immunoblotting was performed by overnight incubation at 4 °C with primary antibodies in PBS, followed by incubation for 1 h at room temperature with HRP-conjugated secondary antibodies. Bound antibodies were measured using ECL reagent (T-Pro Biotechnology, New Taipei City, Taiwan), and the membrane was placed on a photographic film. Cell lysates (30 μg) were incubated with antibodies (1 μg each) and protein A/G agarose beads overnight at 4 °C. The precipitated beads were washed three times with 1 mL of ice-cold cell lysis buffer, and bound immune complexes were separated using 8% SDS-PAGE, followed by immunoblotting using the indicated primary antibody.

SH-SY5Y cells [2] = experiment: MTT cell viability, SH-SY5Y; type: cell-based, human; conditions: 24 h, 0.01–1 μM
Experimental: as §1

SH-SY5Y cells [3] = experiment: Aβ1–40-induced tau phosphorylation, western blot; type: cell-based, human; conditions: Aβ1–40 10 μM 24 h, then 0.1 μM for 24 h
Experimental: Cell lysates were prepared for western blot analysis of the indicated proteins. Results are presented as the mean ± SEM. *p < 0.05, **p < 0.01, and ***p < 0.001 compared with the control group; ^#p < 0.05, ^##p < 0.01, ^###p < 0.001 compared with the indicated groups
as §2, with “The precipitated beads were washed three times with 1 mL of ice-cold cell lysis buffer, and bound immune complexes were separated using 8% SDS-PAGE, followed by immunoblotting using the indicated primary antibody.” left out

SH-SY5Y cells [4] = experiment: Flow cytometry of sub-G1 (PI) and annexin V/PI in transfected SH-SY5Y cells; type: cell-based, human; conditions: 0.1 μM, 24 h
Experimental: The fractionation scheme used to separate different cellular pools of tau, and the western blot analysis of the effects of the compounds on tau pools generated using the fractionation scheme are presented. b, d SH-SY5Y cells were transfected for 24 h with pCAX APP 695 and pRK5-EGFP-Tau P301L, incubated with or without MPT0G211 or ACY-1215 (0.1 μM) for another 24 h, and then the cells were fixed and stained by propidium iodide (b) or annexin V/PI double staining (d) and analyzed by flow cytometry. c, e Percentages of the subG1 phase (c) or annexin V-positive cells (e) in response to drug treatment as explained in (b). Results are presented as the mean ± SEM. *p < 0.05 and **p < 0.01 compared with the control group; ^#p < 0.05 and ^##p < 0.01 compared with the indicated groups TEXT PRINTED IN THE PICTURE: (B) MPT0G211: hAPP + hTauP301L: SubG1 10.91% | (B) ACY-1215: hAPP + hTauP301L: SubG1 15.40% | (D) MPT0G211: hAPP + hTauP301L: 9.56%; hAPP + hTauP301L: 11.26% | (D) ACY-1215: hAPP + hTauP301L: 9.28%; hAPP + hTauP301L: 11.25%
After drug treatment, the cells were collected, washed with cold phosphate-buffered saline (PBS), and fixed with 75% alcohol overnight at −20 °C. After centrifugation, the fixed cells were washed with cold PBS and resuspended in DNA extraction buffer (0.2 M Na2HPO4, 0.1 M citric acid, pH 7.8) for 30 min. The cells were centrifuged and incubated with propidium iodide (PI) (0.1% Triton X-100, 100 μg/mL RNase A, and 80 μg/mL PI in PBS) for 30 min. The cell cycle was analyzed using a FACScan Flow cytometer and Cell Quest software (Becton Dickinson, Mountain View, CA, USA).

SH-SY5Y cells [5] = experiment: Immunoprecipitation/immunoblot of HDAC6, acetyl-lysine, ubiquitin in transfected SH-SY5Y cells; type: cell-based, human; conditions: 24 h
Experimental: Fig. 4 MPT0G211 increased the ubiquitination of p-tau and degradation by proteasome. a, b SH-SY5Y and Neuro-2a cells were transfected for 24 h with pCAX APP 695 and pRK5-EGFP-Tau P301L and incubated with MPT0G211 or ACY-1215 (0.1 μM) for another 24 h, after which the cell lysates were immunoprecipitated with antibodies against HDAC6, acetyl-lysine (a) or ubiquitin (b) and were subjected to immunoblotting. c Cells were transfected with pCAX APP 695 and pRK5-EGFP-Tau P301L for 24 h and were then incubated with MPT0G211 (0.01–1 μM) for another 24 h. Immunoblots reveal polyubiquitin complexes. d pCAX APP 695 or pRK5-EGFP-Tau P301L were used to transfect the cells for 24 h, incubated with or without MG132 (1 μM) for 30 min, and were then treated with MPT0G211 or ACY-1215 (0.1 μM) for another 24 h. Cell lysates were prepared for western blot analysis of the indicated proteins
as §2

Neuro-2a cells = experiment: MTT cell viability, Neuro-2a; type: cell-based, mouse; conditions: 24 h, 0.01–1 μM
Experimental: as §1

3×Tg-AD mice = experiment: Immunohistochemistry and western blot of brain (hippocampal CA1) of 3×Tg-AD mice; type: in vivo, mouse; conditions: 3×Tg-AD mice, 50, 100 mg/kg oral, 3 months
Source text: Red arrowheads indicate phosphorylated-tau proteins. Scale bar = 25 μm. Data represent the mean ± SEM. *p < 0.05, **p < 0.01, and ***p < 0.001 compared with the basal or control group; ^#p < 0.05, ^##p < 0.01, and ^###p < 0.001 compared with the vehicle-treated group

[6] = hAPP + hTauP301L transfected SH-SY5Y, Fig. 3d picture, quadrant not identified

O=C(NO)c1ccc(CNc2cccc3cccnc23)cc1 [MPT0G211, N-hydroxy-4-((quinolin-8-ylamino)methyl)benzamide]
acetylation of histones (SH-SY5Y cells [1]): without affecting the acetylation of histones | acetylation of α-tubulin (SH-SY5Y cells [1]): concentration-dependently increased | cytotoxicity (MTT cell viability) (SH-SY5Y cells [2]): did not result in any significant cytotoxicity | GSK3β activity and Aβ1–40-induced tau phosphorylation (SH-SY5Y cells [3]): diminished | SubG1 population (SH-SY5Y cells [4]; hAPP + hTauP301L transfected SH-SY5Y, PI staining, Fig. 3b picture): 10.91% | annexin V/PI double staining, quadrant percentage (SH-SY5Y cells [4]; [6]): 11.26% | annexin V/PI double staining, quadrant percentage (first value) (SH-SY5Y cells [4]; [6]): 9.56% | plasmid transfection-induced sub-G1 population and annexin V-positive apoptotic cells increase (SH-SY5Y cells [4]; transfected neuronal cells): significantly inhibited | coimmunoprecipitation of ubiquitin with p-tau (Ser396) (SH-SY5Y cells [5]; 0.1 μM): clearly increased | HDAC6/Hsp90 binding (SH-SY5Y cells [5]; 0.1 μM, IP): downregulation | acetylation of Hsp90 (SH-SY5Y cells [5]; 0.1 μM, IP): clearly enhanced | level of polyubiquitinated proteins (SH-SY5Y cells [5]; 0.01–1 μM): significantly accumulated | cytotoxicity (MTT cell viability) (Neuro-2a cells): did not result in any significant cytotoxicity | acetyl-α-tubulin accumulation in brain (3×Tg-AD mice): increased | p-Tau (S396) expression in brain (3×Tg-AD mice; hippocampal CA1): significantly downregulated | p-Tau (S404) expression in brain (3×Tg-AD mice; hippocampal CA1): significantly downregulated
